# Assay results published in patent US6790854B2, “Diphenylalkylamine derivatives useful as opioid receptor agonists” (Meiji Seika Kaisha, Ltd., priority 2000, dated 2004).
# Biological target: T1, opioid δ receptor (Rattus norvegicus, UniProt P33533)
# T1 construct: A membrane fraction of opioid δ receptor was prepared from the rat forebrain; from tissue; host or cells: rat forebrain membrane fraction
# Assay: Binding affinity for opioid δ receptor ([3H]-Naltrindole displacement, rat forebrain membrane fraction)
# Settings: [3H]-Naltrindole 1 nM, 25° C., 90 minutes, Ki calculated from IC50 by the Cheng-Prusoff equation
# T1 sequence (P33533 whole entry): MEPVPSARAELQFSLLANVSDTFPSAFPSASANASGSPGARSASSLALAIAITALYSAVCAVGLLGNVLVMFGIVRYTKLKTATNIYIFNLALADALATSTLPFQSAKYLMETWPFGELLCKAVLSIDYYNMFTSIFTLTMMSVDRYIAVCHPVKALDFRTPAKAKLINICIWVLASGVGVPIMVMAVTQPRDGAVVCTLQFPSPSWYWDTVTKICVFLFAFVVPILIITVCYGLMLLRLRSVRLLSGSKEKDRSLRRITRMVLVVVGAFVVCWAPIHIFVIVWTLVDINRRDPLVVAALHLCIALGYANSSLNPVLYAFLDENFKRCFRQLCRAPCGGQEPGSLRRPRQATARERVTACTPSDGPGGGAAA
smiles,measurement,value
"CCN(CC)C(=O)c1ccc(C(CCN2CCC3(CC2)CNC(=O)c2cccc(C)c23)c2ccccc2OC)cc1 (stereo not shown) [Example 9, 1′-[3-(4-Diethylcarbamoylphenyl)-3-(2-methoxyphenyl)Propyl]-2,3-dihydro-5-methylspiro [isoquinoline-4(1H),4′-piperidin]-1-one]",Ki,1210 nM
